In US12435312B2, “Quantifying cell-derived changes in collagen synthesis, alignment, and mechanics in a 3D connective tissue model” (Brown University, priority 2022, dated 2025):

Columns and labels:
[1] = system: normal human dermal fibroblasts (ring-shaped tissue constructs); test: Collagen quantification (pepsin-acid soluble collagen, sircol dye binding assay) of ring-shaped tissue constructs; format: cell-based; details: for effect on collagen content: p>0.05
Method: (§1) Cell Source and Culture Conditions: Juvenile normal human dermal fibroblasts (jNHDF) were purchased from PromoCell (Heidelberg, Germany). Cells were expanded in Dulbecco's Modified Eagle's medium (DMEM) with high glucose, 1-glutamine, phenol red, and sodium pyruvate (11995065, Thermo Fisher Scientific, Waltham, MA) supplemented with 10% FBS and 1% penicillin/streptomycin at 10% CO2 and 37° C. Cells were passaged (P3-8) and expanded using a standard trypsin protocol. Cells were rinsed with 1× PBS (SH30256.FS, Thomas Scientific, Swedesboro, NJ), exposed to 0.05% trypsin in PBS for 4 min, quenched with serum containing media, centrifuged at 220g for 3 min, resuspended, counted, and plated at a density of 3.5-7.0×10^3 cells per cm^2. Ring-shaped tissue constructs (5 mm) were seeded at 3×10^5 cells per well in 1 mL of media exchanged every 2/3 days unless otherwise noted. For media composition experiments, tissues were cultured in serum-free DMEM supplemented with 0.1 mm 2-phospho-l-ascorbic acid trisodium salt (SigmaAldrich, St. Louis, MO), 50.0 μg mL^−1 I-proline (Thermo Fisher), 1% penicillin/streptomycin (SFM+), advanced DMEM (12491015) supplemented with 4 mm GlutaMax and 1% penicillin/streptomycin (SFMA), or a 50:50 mixture of the two (50:50 SFM+/SFMA).
Drug Treatment: For all dose-response experiments, ring constructs were allowed to form for 24 h prior to treatment. […]
Collagen Quantification: Tissues were homogenized with 2 mm glass beads for 2/3 min and solubilized in 0.1 mg mL^−1 pepsin in 0.5 m acetic acid at 4° C. for 48 h. Total pepsin-acid soluble collagen was quantified via sircol dye binding assay per kit instructions (S5000, Biocolor, United Kingdom). Absorbance was measured at 525 nm and collagen content was determined from a standard curve and adjusted to microgram equivalent of native pepsin-acid soluble collagen.

[2] = system: normal human dermal fibroblasts (ring-shaped tissue constructs); test: Tensile mechanical testing to failure of ring-shaped tissue constructs; format: cell-based
Method: as §1
Fabrication of Ring-Shaped Tissue Constructs: Ring-shaped molds were designed usingCADsoftware (SolidWorks Corporation, Concord, MA) and fabricated from stainless steel 316 L on a CNC lathe (Protolabs, Maple Plain, MN). The stainless steel parts were designed to fit into a single well of a standard 24 well plate. Ring-shaped agarose gels were cast by placing the stainless steel part into a well filled with 1.5 mL of molten, sterile 2% (w/v) agarose (BP160-500, Fisher Scientific, Hampton, NH) in 1× PBS, allowed to harden for 15 min, and removed. […] A lid mirroring a standard 24 well plate lid was fabricated out of aluminum with through holes above each well to permit the placement of all 24 stainless steel parts simultaneously. Gels were equilibrated in serum-free DMEM with 1% penicillin/streptomycin at 37° C., 10% CO2 for at least 24 h before use.
Drug Treatment: For all dose-response experiments, ring constructs were allowed to form for 24 h prior to treatment. FBS (12483020, Life Technologies, Carlsbad, CA), Y-27632 (S1049, Selleck Chemicals, Houston, TX), TGF-β1 (7754-BH-25, […]), and SB-431542 (S1067, Selleck Chemicals) doses were freshly prepared from frozen aliquots and resuspended in 50:50 SFM+/SFMA medium prior to feeding 3× per week. Doses of FBS were prepared at 10%, 1.0%, and 0.1% [v/v] concentrations with a 0% control. Y-27632 and SB-431542 were reconstituted in dimethyl sulfoxide (DMSO) and resuspended at a final concentration of 10, 1.0, 0.1, and a 0 μm vehicle control with a DMSO final volume always less than 0.1%. TGF-β1 was reconstituted in 0.1% bovine serum albumin (BSA) in 4 mm HCl (RB04, […]) and prepared at a final concentration of 10, 2, 0.4, and 0 ng mL^−1 vehicle control.
Mechanical Testing: Ring-shaped microtissues were mechanically tested using custom designed grippers on a uniaxial tensile testing setup (Instron 5943, Norwood, MA) equipped with a 5N (5 mn resolution) load cell. Agarose molds were trimmed with a razor blade and top and sideview brightfield images were obtained on a Nikon Eclipse Ts2 microscope (Nikon, Tokyo, Japan) to determine the initial elliptical cross-sectional area (A0). Just prior to testing, tissue constructs were gently removed from the agarose mold using forceps and mounted between grippers which consisted of two horizontal cylindrical segments with a circular diameter of 3 mm fabricated from glass filled nylon (PA614-GS, ProtoLabs). Tissues were brought to a 5 mm initial grip-to-grip distance and tests were performed in PBS at 37° C. […]

actomyosin network = details: disruption of the actomyosin network; cited from earlier work
[3] = 0.1, 1.0, 10.0 μM in 50:50 media from 24 h after seeding, 7 or 14 days, p>0.05
[4] = highest inhibitory concentration (10.0 μM) in 50:50 media, day 7 and 14, p<0.05
[5] = 10 ng mL^−1 TGF-β1 versus 10 μm SB431542, day 7

C[C@@H](N)[C@H]1CC[C@H](C(=O)Nc2ccncc2)CC1 [Y-27632]
effect on collagen content ([1]; 0.1, 1.0, 10.0 μM in 50:50 media from 24 h after seeding, 7 or 14 days): did not significantly affect
effect on tissue stiffness [2, 3]: did not significantly affect
effect on tissue strength [2, 3]: did not significantly affect

Cc1ccc2c(c1)C(=O)C1(O)CCN(c3ccccc3)C1=N2 (stereo not drawn) [blebbistatin]
effect on development of mechanical properties (actomyosin network): halts the development of mechanical properties

cytochalasin
effect on development of mechanical properties (actomyosin network): halts the development of mechanical properties

NC(=O)c1ccc(-c2nc(-c3ccc4c(c3)OCO4)c(-c3ccccn3)[nH]2)cc1 [SB-431542]
effect on collagen content ([1]; 0.1, 1.0, 10.0 μM in 50:50 media, any dose or time point): no effect
effect on tissue stiffness [2, 4]: weakest stiffness and strength
effect on tissue strength [2, 4]: weakest stiffness and strength

TGF-β1: pleiotropic growth factor and proposed master mediator of fibrotic disorders
change in collagen content ([1]; 0.4, 2.0, 10 ng mL^−1 in 50:50 media, day 7 and 14): not a concomitant change
increase in tissue stiffness, TGF-β1 stimulation versus inhibition with SB431542 [2, 5]: 4.8 fold
increase in tissue strength, TGF-β1 stimulation versus inhibition with SB431542 [2, 5]: 6.5 fold
effect on tissue mechanics (stiffness and strength) ([2]; 0.4, 2.0, 10 ng mL^−1 in 50:50 media, day 7 and 14, p<0.05): increased tissue mechanics in a significant dose-dependent manner
